According to US20250319108A1, “COMBINATIONS” (AN2 Therapeutics, Inc., priority 2021, published 2025):
≈ marks a conversion by molar mass, not a printed value. Counter-ions that a name gives are not always drawn. Like-named read-outs stand apart in the source and are kept apart here.

Tests used:
[1] = test system: M. abscessus ATCC 19977; test: MIC, broth microdilution; format: cell-based; conditions: for MIC: Mycobacteroides abscessus, ATCC19977, read-out: In Vitro Activity (MIC)
Protocol: (§1) Minimum inhibitory concentration (MIC) determinations: MIC values for the putative EBO resistant mutants were determined by broth microdilution method (BMD) in cation-adjusted Mueller Hinton broth according to Clinical and Laboratory Standards Institute document M24-A3 (Clinical and Laboratory Standards Institute. Susceptibility Testing of Mycobacteria, Nocardia spp., and Other Aerobic Actinomycetes. 3rd ed. CLSI standard M24. Clinical and Laboratory Standards Institute, Wayne, PA: 2018). Agar MIC values were determined as essentially described by CLSI M24-A3 using 7H10 Middlebrook agar and 5% OADC.

[2] = test system: M. avium 2285R; test: MIC, broth microdilution; format: cell-based; conditions: for MIC: Mycobacterium avium, read-out: In Vitro Activity (MIC)
Protocol: as §1

[3] = test system: M. avium ATCC 700858; test: MIC, broth microdilution; format: cell-based; conditions: for MIC: Mycobacterium avium, ATCC700858, read-out: In Vitro Activity (MIC)
Protocol: as §1

[4] = test system: M. chimaera 20-S-05; test: MIC, broth microdilution; format: cell-based; conditions: for MIC: 20S05, read-out: In Vitro Activity (MIC)
Protocol: as §1

[5] = test system: M. intracellulare 20-S-13; test: MIC, broth microdilution; format: cell-based; conditions: for MIC: Mycobacterium intracellulare
Protocol: as §1

[6] = test system: M. intracellulare DNA000111; test: MIC, broth microdilution; format: cell-based; conditions: for MIC: Mycobacterium intracellulare, read-out: In Vitro Activity (MIC)
Protocol: as §1

[7] = test system: M. peregrinum ATCC 700686; test: MIC, broth microdilution; format: cell-based; conditions: for MIC: Mycolicibacterium peregrinum, ATCC700686, read-out: In Vitro Activity (MIC)
Protocol: as §1

[8] = test system: M. avium ATCC 700898; test: Agar MIC; format: cell-based; conditions: 7H10 Middlebrook agar, 5% OADC; for MIC: Mycobacterium avium, ATCC700898
Protocol: as §1
(§2) Resistant colonies were confirmed by replica plating on agar plates containing antibiotic at the same concentration used to select resistance. Control plates containing no drug were prepared for inoculum determination. The RF was calculated by dividing the total CFU/mL of resistant colonies by the total CFU/mL of the inoculum.

[9] = test system: M. avium ATCC 700898 isolate 16-3A; test: MIC, EBO selected isolate; format: cell-based
Protocol: as §1, §2

[10] = test system: M. avium ATCC 700898 isolate 16-5A; test: MIC, EBO selected isolate; format: cell-based
Protocol: as §1, §2

[11] = test system: M. avium ATCC 700898 isolate 32-5A; test: MIC, EBO selected isolate; format: cell-based
Protocol: as §1, §2

[12] = test system: M. avium ATCC 700898 isolate 32-8A; test: MIC, EBO selected isolate; format: cell-based
Protocol: as §1, §2

[13] = test system: M. avium ATCC 700898 isolate 64-3A; test: MIC, EBO selected isolate; format: cell-based
Protocol: as §1, §2

[14] = test system: M. avium ATCC 700898 isolate 64-4A; test: MIC, EBO selected isolate; format: cell-based
Protocol: as §1, §2

[15] = test system: M. avium ATCC 700898 WT; test: MIC, parent strain; format: cell-based
Protocol: as §1, §2

[16] = test system: M. avium ATCC 700898; format: cell-based
Protocol: as §2

[17] = test system: EBO resistant mutants of M. avium ATCC 700898; format: cell-based
Protocol: as §1, §2

[18] = test system: M. intracellulare 20-S-13; test: Checkerboard synergy testing with EBO; format: cell-based; conditions: M. intracellulare 20-S-13, clarithromycin resistant
Protocol: Frozen stocks of the drugs were prepared at 5 or 2 mg/ml and frozen in aliquots at −20° C. On the day of the experiment the stocks were thawed and diluted to the appropriate concentration.
Stocks of isolates were prepared and frozen at −80° C. Fresh cultures of each isolate (1-2 weeks) were grown on either 7H10 agar plus 5% OADC or CAMH agar plus 5% OADC for use in each experiment.
(§3) The checkerboard methodology was used to test for synergy and antagonism using Middlebrook 7H9+5% OADC (Dubos et al. Am Rev Tuberc (1947) 56:334-45) as the microbiology growth media. The first antibiotic of the combination, EBO, was serially diluted along the x-axis, whereas the second antibiotic was diluted along the y- axis. Synergistic or antagonistic activity was determined using the sum of the fractional inhibitory concentration (EFIC) index. The FIC index is calculated as the sum of FIC A+FIC B, where FIC A is the MIC of drug A in the combination of drugs A and B divided by the MIC of drug A alone, plus the MIC of drug B in the combination of drugs A and B divided by the MIC of drug B alone. A combination of drugs is considered synergistic when the FIC is <0.5, additive when the FIC is >0.5 to 1, indifferent when the FIC is >1 to 2, and antagonistic when the FIC is >2 (EUCAST. Clin. Microbiol. Infect. (2000) 6: 503-508).

[19] = test system: NTM strains (5 MAC strains, 2 rapidly growing); test: Checkerboard synergy testing with EBO, summary over strains; format: cell-based
Protocol: as §3

[20] = test system: M. avium ATCC 700898; conditions: Sensititre SLOMYCO plate; cited from earlier work
[21] = 20S13, M. intracellulare 20-S-13, read-out: In Vitro Activity (MIC)
[22] = 20S13, read-out: In Vitro Activity (MIC)
[23] = Mycobacterium avium, ATCC700898

Structure (SMILES)	MIC [1] [µg/mL]	MIC [2] [µg/mL]	MIC [3] [µg/mL]	MIC [4] [µg/mL]	MIC [6] [µg/mL]	MIC [7] [µg/mL]	MIC [8] [µg/mL]	MIC ([9]; Mycobacterium avium) [µg/mL]	MIC ([10]; Mycobacterium avium) [µg/mL]	MIC ([11]; Mycobacterium avium) [µg/mL]	MIC ([12]; Mycobacterium avium) [µg/mL]	MIC ([13]; Mycobacterium avium) [µg/mL]	MIC ([14]; Mycobacterium avium) [µg/mL]	MIC [5, 22] [µg/mL]	MIC [15, 23] [µg/mL]	further results
NCC[C@H](O)C(=O)N[C@@H]1C[C@H](N)[C@@H](O[C@H]2O[C@H](CN)[C@@H](O)[C@H](O)[C@H]2O)[C@H](O)[C@H]1O[C@H]1O[C@H](CO)[C@@H](O)[C@H](N)[C@H]1O [AMK, Amikacin]	64 (≈ 109 µM)	8 (≈ 13.7 µM)	16 (≈ 27.3 µM)	32 (≈ 54.6 µM)	16 (≈ 27.3 µM)	2 (≈ 3.42 µM)	32 (≈ 54.6 µM)	32 (≈ 54.6 µM)	32 (≈ 54.6 µM)	32 (≈ 54.6 µM)	32 (≈ 54.6 µM)	32 (≈ 54.6 µM)	32 (≈ 54.6 µM)	–	–	MIC [5, 21]: 20 µg/mL (≈ 34.2 µM)
COc1nc2ccc(Br)cc2cc1[C@@H](c1ccccc1)[C@@](O)(CCN(C)C)c1cccc2ccccc12 [BDQ, Bedaquiline]	0.5 (≈ 0.9 µM)	0.03 (≈ 0.054 µM)	0.06 (≈ 0.108 µM)	0.06 (≈ 0.108 µM)	0.5 (≈ 0.9 µM)	0.06 (≈ 0.108 µM)	–	0.06 (≈ 0.108 µM)	0.06 (≈ 0.108 µM)	0.03 (≈ 0.054 µM)	0.12 (≈ 0.216 µM)	0.12 (≈ 0.216 µM)	0.06 (≈ 0.108 µM)	> 0.5	0.06 (≈ 0.108 µM)	–
CC(C)/N=c1\cc2n(-c3ccc(Cl)cc3)c3ccccc3nc-2cc1Nc1ccc(Cl)cc1 [CFZ, clofazimine]	–	–	–	–	–	–	–	0.25 (≈ 0.528 µM)	0.25 (≈ 0.528 µM)	0.5 (≈ 1.06 µM)	0.25 (≈ 0.528 µM)	0.5 (≈ 1.06 µM)	0.5 (≈ 1.06 µM)	–	0.5 (≈ 1.06 µM)	–
CC[C@H]1OC(=O)[C@H](C)[C@@H](O[C@H]2C[C@@](C)(OC)[C@@H](O)[C@H](C)O2)[C@H](C)[C@@H](O[C@@H]2O[C@H](C)C[C@H](N(C)C)[C@H]2O)[C@](C)(OC)C[C@@H](C)C(=O)[C@H](C)[C@@H](O)[C@]1(C)O [CLR, Clarithromycin]	16 (≈ 21.4 µM)	0.125 (≈ 0.167 µM)	2 (≈ 2.67 µM)	4 (≈ 5.35 µM)	2 (≈ 2.67 µM)	1 (≈ 1.34 µM)	4 (≈ 5.35 µM)	0.5 (≈ 0.668 µM)	–	1 (≈ 1.34 µM)	0.5 (≈ 0.668 µM)	0.5 (≈ 0.668 µM)	2 (≈ 2.67 µM)	> 128	2 (≈ 2.67 µM)	–
NC[C@H]1OB(O)c2c(OCCCO)cccc21 [EBO, Epetraborole hydrochloride]	–	–	–	–	–	–	–	–	–	–	–	–	–	–	–	In Vitro Activity (MIC) [1]: 0.06 µg/mL; In Vitro Activity (MIC) [2]: 0.5 µg/mL; In Vitro Activity (MIC) [3]: 2 µg/mL; In Vitro Activity (MIC) [4]: 2 µg/mL; In Vitro Activity (MIC) ([5]; M. intracellulare 20-S-13): 0.25 µg/mL; In Vitro Activity (MIC) [6]: 0.5 µg/mL; In Vitro Activity (MIC) [7]: 0.06 µg/mL; Agar MIC [8]: 8 µg/mL; Resistance Frequency ([16]; EBO selection concentration 16 mg/L): 1.58 × 10^−7; Resistance Frequency ([16]; EBO selection concentration 32 mg/L): 1.21 × 10^−8; Resistance Frequency ([16]; EBO selection concentration 64 mg/L): 8.49 × 10^−9; Spontaneous resistance frequency ([16]; selected on 2-8× agar MIC): 1.58×10^−7 to 8.48×10^−9; MIC ([15]; WT parent strain): 0.5 µg/mL; MIC ([9]; EBO selected isolate 16-3A): >128 µg/mL; MIC ([10]; EBO selected isolate 16-5A): 64 µg/mL; MIC ([11]; EBO selected isolate 32-5A): >128 µg/mL; MIC ([12]; EBO selected isolate 32-8A): >128 µg/mL; MIC ([13]; EBO selected isolate 64-3A): >128 µg/mL; MIC ([14]; EBO selected isolate 64-4A): >128 µg/mL; Change of MIC value in EBO resistant mutants versus wild-type [17]: ≥ 128 fold
CC[C@@H](CO)NCCN[C@@H](CC)CO [EMB, Ethambutol]	32 (≈ 157 µM)	16 (≈ 78.3 µM)	8 (≈ 39.2 µM)	4 (≈ 19.6 µM)	32 (≈ 157 µM)	8 (≈ 39.2 µM)	8 (≈ 39.2 µM)	4 (≈ 19.6 µM)	4 (≈ 19.6 µM)	4 (≈ 19.6 µM)	8 (≈ 39.2 µM)	4 (≈ 19.6 µM)	8 (≈ 39.2 µM)	64 (≈ 313 µM)	4 (≈ 19.6 µM)	Interaction between ethambutol and EBO, in words [18]: indifference; Interaction with EBO over the 5 MAC strains tested, in words [19]: synergy was observed with 2 strains and additivity with an additional 2 strains
CO[C@H]1/C=C/O[C@@]2(C)Oc3c(C)c(O)c4c(c3C2=O)C2=NC3(CCN(CC(C)C)CC3)NC2=C(NC(=O)/C(C)=C\C=C\[C@H](C)[C@H](O)[C@@H](C)[C@@H](O)[C@@H](C)[C@H](OC(C)=O)[C@@H]1C)C4=O [RFB, Rifabutin]	32 (≈ 37.8 µM)	0.125 (≈ 0.148 µM)	0.25 (≈ 0.295 µM)	1 (≈ 1.18 µM)	2 (≈ 2.36 µM)	8 (≈ 9.44 µM)	0.25 (≈ 0.295 µM)	0.06 (≈ 0.0708 µM)	0.06 (≈ 0.0708 µM)	0.06 (≈ 0.0708 µM)	0.125 (≈ 0.148 µM)	0.06 (≈ 0.0708 µM)	0.25 to 0.5 (≈ 0.295 to 0.59 µM)	–	0.06 (≈ 0.0708 µM)	MIC [5, 21]: 0.06 µg/mL (≈ 0.0708 µM)
CO[C@H]1/C=C/O[C@@]2(C)Oc3c(C)c(O)c4c(O)c(c(/C=N/N5CCN(C)CC5)c(O)c4c3C2=O)NC(=O)/C(C)=C\C=C\[C@H](C)[C@H](O)[C@@H](C)[C@@H](O)[C@@H](C)[C@H](OC(C)=O)[C@@H]1C [rifampin, Rifampin]	–	–	–	–	–	–	–	–	–	–	–	–	–	–	–	MIC variance previously reported for this strain [20]: 8 fold
